This is an account of results in patent US4326054A, “Cleomycins and process for producing same” (Zaidan Hojin Biseibutsu Kagaku Kenkyu Kai, priority 1979, dated 1982).

The test system of data set [1] is Mycobacterium smegmatis ATCC 607. The experiment in a line: Antimicrobial activity, agar plate-cylinder method, bleomycin A2 as standard (1,000 u/mg). Particulars: Examples, Step A; hydrochloride, copper-containing form; bleomycin A2 = 1,000 u/mg. It counts as cell-based.
For data set [2] the test system is unchanged. Described as above. Type of data set: cell-based. Particulars: copper-free form; for Antimicrobial potency: bleomycin A2 = 1,000 u/mg; for Antimicrobiral potency: Table 5, relative to bleomycin A2 = 1,000 u/mg. As to the method: Typical examples of the biological activities measured on cleomycins (copper-free form) are illustrated below.
Comparison was made with the relevant antibiotics bleomycins. The relative antimicrobial potency (u/mg) against Mycobacterium smegmatis ATCC 607 was measured by agar plate-cylinder method using bleomycin A2 as a standard (1,000 u/mg).
(Note: The antimicrobial potency was determined by taking bleomycin
A2 as 1,000 μ/mg and using Mycobacterium smegmatis ATCC 607 as a
test bacterium. Herinafter, the same was applied.)

A short description of data set [3]: Solubility (physical and chemical properties, Tables 4-1 and 4-2). Particulars: hydrochloride, also soluble in dimethylformamide, dimethylsulfoxide, and methanol.
In data set [4] the test system is HeLa S3 cells. As to the kind of experiment: Activity on cultured HeLa S3 cells (growth inhibition). Type of data set: cell-based. As to the method:
Fifty percent inhibitory cocentration (LD50) was determined on a test compound cleomycin (No. 33) and on a reference compound bleomycin A2, from the percent of growth inhibition measured on HeLa S3 cells after the cells had been cultured in the presence of each of the compounds.

Setting [5] is: Examples, Step B, hydrochloride.

The structures appear in SMILES notation.

On to `Cc1c(N)nc(C(CC(N)=O)NCC(N)C(N)=O)nc1C(=O)NC(C(=O)NC(C)C(O)C(C)C(=O)NC(C(=O)NCCc1nc(-c2nc(C(=O)NCCC[S+](C)C)cs2)cs1)C1(O)CC1)C(OC1OC(CO)C(O)C(O)C1OC1OC(CO)C(O)C(OC(N)=O)C1O)c1cnc[nH]1` (stereo not shown) [compound 1, 3-s,s-dimethylmercaptopropylaminocleomycin], for which the Antimicrobial potency in data set [1] is given as 1,360 u/mg; in data set [2] (setting [5]) it was 1,320 u/mg. For the same compound, in data set [2], the Antimicrobiral potency is 1,320 u/mg. In addition, the Solubility result in data set [3] (copper-containing form) and in data set [3] (copper-free form) was “Soluble in water” throughout.

In the case of `CCCCNCCCNCCCNC(=O)c1csc(-c2csc(CCNC(=O)C(NC(=O)C(C)C(O)C(C)NC(=O)C(NC(=O)c3nc(C(CC(N)=O)NCC(N)C(N)=O)nc(N)c3C)C(OC3OC(CO)C(O)C(O)C3OC3OC(CO)C(O)C(OC(N)=O)C3O)c3cnc[nH]3)C3(O)CC3)n2)n1` (stereo not shown), the values for the Antimicrobial potency in data set [1] and in data set [2] (setting [5]) were 8,130 u/mg and 7,942 u/mg, respectively.

With `Cc1c(N)nc(C(CC(N)=O)NCC(N)C(N)=O)nc1C(=O)NC(C(=O)NC(C)C(O)C(C)C(=O)NC(C(=O)NCCc1nc(-c2nc(C(=O)NCCC[S+](C)C)cs2)cs1)C(C)O)C(OC1OC(CO)C(O)C(O)C1OC1OC(CO)C(O)C(OC(N)=O)C1O)c1cnc[nH]1` (stereo not shown) [Bleomycin A2, reference compound], the IC50 in data set [4] (Homo sapiens, HeLa S3, read-out: LD50 (fifty percent inhibitory concentration, growth inhibition)) was found to be 0.73 µg/mL.

On to `Cc1c(N)nc(C(CC(N)=O)NCC(N)C(N)=O)nc1C(=O)NC(C(=O)NC(C)C(O)C(C)C(=O)NC(C(=O)NCCc1nc(-c2nc(C(=O)NCCCN(C)CCCN)cs2)cs1)C1(O)CC1)C(OC1OC(CO)C(O)C(O)C1OC1OC(CO)C(O)C(OC(N)=O)C1O)c1cnc[nH]1` (stereo not shown) [Compound No. 20, 3-[N-methyl-N-(3-aminopropyl)]aminopropylaminocleomycin], for which the Antimicrobial potency in data set [1] is on record as 2,300 u/mg; in data set [2] (setting [5]), 2,273 u/mg. The Antimicrobiral potency in data set [2] was 2,273 u/mg.

Regarding `Cc1c(N)nc(C(CC(N)=O)NCC(N)C(N)=O)nc1C(=O)NC(C(=O)NC(C)C(O)C(C)C(=O)NC(C(=O)NCCc1nc(-c2nc(C(=O)NCCCCNC(=N)N)cs2)cs1)C1(O)CC1)C(OC1OC(CO)C(O)C(O)C1OC1OC(CO)C(O)C(OC(N)=O)C1O)c1cnc[nH]1` (stereo not shown) [Compound No. 2, 4-guanidinobutylaminocleomycin], the Antimicrobiral potency in data set [2] is 3,262 u/mg. Moreover, the Solubility entry in data set [3] (copper-containing form) and in data set [3] (copper-free form) was “Soluble in water” throughout.

Consider `Cc1c(N)nc(C(CC(N)=O)NCC(N)C(N)=O)nc1C(=O)NC(C(=O)NC(C)C(O)C(C)C(=O)NC(C(=O)NCCc1nc(-c2nc(C(=O)NCCCNCCCCN)cs2)cs1)C1(O)CC1)C(OC1OC(CO)C(O)C(O)C1OC1OC(CO)C(O)C(OC(N)=O)C1O)c1cnc[nH]1` (stereo not shown), for which the Antimicrobial potency in data set [1] was 3,520 u/mg; in data set [2] (setting [5]) it was 3,575 u/mg.

`CCCCNCCCNCCCNC(=O)c1csc(-c2csc(CCNC(=O)C(NC(=O)C(C)C(O)C(C)NC(=O)C(NC(=O)c3nc(C(CC(N)=O)NCC(N)C(N)=O)nc(N)c3C)C(OC3OC(CO)C(O)C(O)C3OC3OC(CO)C(O)C(OC(N)=O)C3O)c3cnc[nH]3)C3(O)CC3)n2)n1` (stereo not shown) [compound 11, 3-(3-n-butylaminopropylamino)propylaminocleomycin]: the Antimicrobiral potency in data set [2] is given as 7,942 u/mg. The Solubility entry in data set [3] (copper-containing form) and in data set [3] (copper-free form) was “Soluble in water” in each case.

Consider `Cc1c(N)nc(C(CC(N)=O)NCC(N)C(N)=O)nc1C(=O)NC(C(=O)NC(C)C(O)C(C)C(=O)NC(C(=O)NCCc1nc(-c2nc(C(=O)NCCCCNC(=N)N)cs2)cs1)C1(O)CC1)C(OC1OC(CO)C(O)C(O)C1OC1OC(CO)C(O)C(OC(N)=O)C1O)c1cnc[nH]1` (stereo not shown) [4-guanidinobutylaminocleomycin], for which the Antimicrobial potency in data set [1] is reported as 3,350 u/mg; in data set [2] (setting [5]), 3,262 u/mg.

On to `Cc1c(N)nc(C(CC(N)=O)NCC(N)C(N)=O)nc1C(=O)NC(C(=O)NC(C)C(O)C(C)C(=O)NC(C(=O)NCCc1nc(-c2nc(C(=O)NCCCNC(C)c3ccccc3)cs2)cs1)C1(O)CC1)C(OC1OC(CO)C(O)C(O)C1OC1OC(CO)C(O)C(OC(N)=O)C1O)c1cnc[nH]1` (stereo not shown) [Compound No. 33, 3-[(s)-1'-phenylethylamino]propylaminocleomycin], for which the Antimicrobial potency in data set [1] is 11,300 u/mg; in data set [2] (Example 1, Step B, sulfate), 10,949 u/mg. Also, the “anti-HeLa action compared with bleomycin A2 (in words)” value in data set [4] (copper-free hydrochloride) is on record as “activity nearly equal to that of bleomycin A2”. Moreover, the Antimicrobiral potency in data set [2] is reported as 10,949 u/mg.
